Data on two compounds can be found in PMC3161630, “Targeted Chemotherapy Using a Cytotoxic Somatostatin Conjugate to Inhibit Tumor Growth and Metastasis in Nude Mice” (Clinical Medicine. Oncology, 2008).

In assay [1] the test system is non-transfected CHO cells. Nature of the assay: Ligand-receptor binding assay, non-transfected CHO cells. As to the method: The assay was performed as a modification of the one previously described. The binding buffer contained Dulbecco’s Modified Eagle’s Medium (DMEM), 50 mM HEPES, 2 mM glutamine, 11.5 mM glucose, 1% bovine serum albumin (BSA) and 5 mM sodium pyruvate. The binding reactions took place in 1.5 ml eppendorf tubes containing 70–100 pM of [^125I]Tyr^11-SST-14 from PerkinElmer (Boston, MA 02118–2512), 1–1.5 × 10^5 cells and the tested SST analogs (10^−5 to 10^−13 M) for a total volume of 300 μl. These were incubated at room temperature for 50–60 minutes and centrifuged for 1–2 min at 9,000 g. The cell pellets were washed twice with phosphate-buffered saline (PBS) and counted for total radioactivity in a Titertek gamma counter (Huntsville, AL). The analyses were done using GraphPad Prism 4.0 (San Diego, […]). For further internalization, cells were then re-suspended and incubated in HBSS (pH4, acetic acid) on ice for 10 min, washed with cold PBS and then re-counted for radioactivity. Due to the radioactivity of membrane-bound receptors being released by the acid wash, the remaining radioactivity represents the internalized peptide.

The subject of assay [2] is prostate cancer PC-3 cells. As to the kind of experiment: Cell proliferation assay (MTT), PC-3. It is filed as cell-based, human. Conditions: table: mean ± SEM (n). As to the method: (§1) The CHO-R1 and CHO-R2 cell lines, which were transfected with rat SSTR1 and SSTR2, respectively, were a kind gift from Dr. Agnes Schonbrunn (University of Texas—Houston, Houston, TX). Cells were cultured in F-12 medium containing 10% fetal calf serum. All other human tumor cell lines, including neuroblastoma IMR32, leukemia MOLT-4, pancreatic cancer CFPAC-1, prostate cancer PC-3 were purchased from ATCC (American Type Culture Collection, Manassas, VA). Human pancreatic carcinoid BON cells were a kind gift from Dr. Courtney Townsend (University of Texas—Galveston) and cultured as described previously.
(§2) The kits for the cell proliferation assay (MTT Assay) were purchased from Promega (Madison, WI) and the protocol was the same as described previously.

Assay [3] deals with pancreatic carcinoid BON tumors. As to the kind of experiment: Tumor growth, continuous drug-releasing pellets, BON tumors. The class given is in vivo, nude mice. The following applies: 5 mg/pellet. On the procedure:
The cytotoxic CPT-SST conjugate JF-10-81 was synthesized as described previously. Continuous drug-releasing pellets containing JF-10-81 (5 mg/pellet) formulated to release drug for 60 days, were made by Innovative Research of America (Sarasota, FL).
Male nude mice, 5–7 weeks of age upon arrival, were purchased from the National Cancer Institute (NCI, Frederik, MD). The animal study was approved by the Tulane University Health Sciences Center Institutional Animal Care and Use Committee (IACUC).
The tumor tissue segments, grown from CFPAC-1, IMR32, MOLT-4 and BON cells injected into nude mice, were s.c. implanted into the flanks of nude mice as described previously. All the tumors were passaged from mouse to mouse. Tumor-carrying mice then were implanted with continuous drug-releasing pellets containing 5 mg of JF-10-81.
For treatments of pancreatic cancer CFPAC-1 tumors, mice were separated into 2 groups. Each mouse in the control group was implanted with a placebo pellet. Each mouse in the test group was implanted with a pellet containing JF-10-81 (5 mg/pellet) with a drug-release time of 60 days. Tumor volumes were measured and bodyweights were taken once a week. The treatment for all other tumors (BON, IMR32 and MOLT-4) was the same as above.

Assay [4] has as its system pancreatic carcinoid BON cells. As to the kind of experiment: Cell proliferation assay (MTT), BON. The class given is cell-based, human. The following applies: table: mean ± SEM (n). As to the method: as §1, §2
In assay [5] the test system is neuroblastoma IMR32 cells. As to the kind of experiment: Cell proliferation assay (MTT), IMR32. The class given is cell-based, human. Conditions: table: mean ± SEM (n). On the procedure: as §1, §2
Assay [6] has as its system pancreatic cancer CFPAC-1 cells. As to the kind of experiment: Cell proliferation assay (MTT), CFPAC-1. Conditions: table: mean ± SEM (n). It is filed as cell-based, human. As to the method:
as §1, §2

The next assay deals with leukemia MOLT-4 cells. As to the kind of experiment: Cell proliferation assay (MTT), MOLT-4. The following applies: table: mean ± SEM (n). The class given is cell-based, human. As to the method: as §1, §2

Consider `C[C@H](N)C(=O)NCC(=O)N[C@H]1CSSC[C@@H](C(=O)O)NC(=O)[C@H](CO)NC(=O)[C@H]([C@@H](C)O)NC(=O)[C@H](Cc2ccccc2)NC(=O)[C@H]([C@@H](C)O)NC(=O)[C@H](CCCCN)NC(=O)[C@H](Cc2c[nH]c3ccccc23)NC(=O)[C@H](Cc2ccccc2)NC(=O)[C@H](Cc2ccccc2)NC(=O)[C@H](CC(N)=O)NC(=O)[C@H](CCCCN)NC1=O` [SST-14], for which, in assay [1], the “affinity to the non-transfected CHO cells” value is “no affinity”.

As usually defined, the EC50 is the midpoint of the concentration-response curve. A high value points to a less potent agent. Turning to `CC[C@@]1(O)C(=O)OCc2c1cc1n(c2=O)Cc2cc3ccccc3nc2-1` [CPT, camptothecin], the EC50 is 20.8 nM in assay [2] (Homo sapiens, PC-3, MTT assay); 20.8 ± 2.82 nM in assay [2] (MTT assay); 171 nM in assay [4] (Homo sapiens); 171 ± 14.6 nM in assay [4]; 2.8 nM in assay [5] (Homo sapiens, IMR-32, MTT assay); 2.82 ± 0.14 nM in assay [5] (MTT assay). Further, the EC50 was found to be 25.5 nM in assay [6] (Homo sapiens, CFPAC-1, MTT assay); 25.5 ± 5.6 nM in assay [6] (MTT assay); 2 nM in the assay on leukemia MOLT-4 cells (Homo sapiens, MOLT-4, MTT assay); 1.96 ± 0.32 nM in the assay with leukemia MOLT-4 cells (MTT assay). Moreover, in assay [3] (42 days, vs placebo), the “Inhibition (%)” value came out at 42%. Further, the “percentage increase of tumor volumes” value in assay [3] (vs initial) is 278%.
